Results: US9783536B2, “Nitrogen-containing heterocyclic compound or salt thereof” (FUJIFILM Corporation, priority 2013, dated 2017)
Where a name gives a salt, the structure may show the parent alone. Read-outs that look alike come from different tables or passages of the source.

Key:
Assay type in all cases: biochemical
[1] = biological target: T1, GST fusion human ERK2 protein (Homo sapiens, UniProt P28482); assay: ERK2 enzyme assay (1); settings: read-out: ERK2 enzyme inhibitory activity (1)
T1 construct: purchased Carna Biosciences, Inc; host or cells: E. coli expression system
T1 sequence (P28482 whole entry, the tested form may be a part): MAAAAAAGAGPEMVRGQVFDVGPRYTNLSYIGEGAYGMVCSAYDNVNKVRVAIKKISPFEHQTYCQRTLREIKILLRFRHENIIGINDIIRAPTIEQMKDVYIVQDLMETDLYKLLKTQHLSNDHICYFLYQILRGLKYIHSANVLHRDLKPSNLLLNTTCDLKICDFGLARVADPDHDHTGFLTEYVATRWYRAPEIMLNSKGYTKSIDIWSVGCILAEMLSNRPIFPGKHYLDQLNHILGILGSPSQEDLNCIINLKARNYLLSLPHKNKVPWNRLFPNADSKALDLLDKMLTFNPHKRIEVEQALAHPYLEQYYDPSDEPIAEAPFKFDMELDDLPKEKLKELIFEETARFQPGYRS
Outline: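 Enzyme (2.5 nmol/L, E. coli-expressed) preincubated with compound 15 min at room temperature in HEPES/MgCl2/DTT/Brij35 buffer, pH 7.5; reaction with 4.25 μmol/L FL-Peptide 8 and 43.1 μmol/L ATP for 120 min at 25 °C. Phosphorylated peptide fraction quantified by mobility-shift separation after EDTA stop; IC50 calculated.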

[2] = biological target: T1, GST fusion human ERK2 protein; assay: ERK2 enzyme assay (2); settings: read-out: ERK2 enzyme inhibitory activity (2)
Outline: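 GST-tagged human ERK2 expressed in E. coli (1.25 nmol/L) was preincubated with compound for 15 min at room temperature in pH 7.5 Hepes buffer with MgCl2, DTT and Brij35. Reaction with FL-Peptide 8 (final 4.25 μmol/L) and ATP (final 1 mmol/L) ran 120 min at 25 °C; EDTA stopped it, and phosphorylated peptide was quantified by mobility-shift separation to derive IC50.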

human PI3Kα protein = biological target: T2, human PI3Kα protein (Homo sapiens, UniProt P42336); assay: PI3Kα enzyme assay (ADP-Glo); settings: read-out: PI3Kα enzyme inhibitory activity
T2 construct: purchased Carna Biosciences, Inc; host or cells: baculovirus expression system
T2 sequence (P42336 whole entry): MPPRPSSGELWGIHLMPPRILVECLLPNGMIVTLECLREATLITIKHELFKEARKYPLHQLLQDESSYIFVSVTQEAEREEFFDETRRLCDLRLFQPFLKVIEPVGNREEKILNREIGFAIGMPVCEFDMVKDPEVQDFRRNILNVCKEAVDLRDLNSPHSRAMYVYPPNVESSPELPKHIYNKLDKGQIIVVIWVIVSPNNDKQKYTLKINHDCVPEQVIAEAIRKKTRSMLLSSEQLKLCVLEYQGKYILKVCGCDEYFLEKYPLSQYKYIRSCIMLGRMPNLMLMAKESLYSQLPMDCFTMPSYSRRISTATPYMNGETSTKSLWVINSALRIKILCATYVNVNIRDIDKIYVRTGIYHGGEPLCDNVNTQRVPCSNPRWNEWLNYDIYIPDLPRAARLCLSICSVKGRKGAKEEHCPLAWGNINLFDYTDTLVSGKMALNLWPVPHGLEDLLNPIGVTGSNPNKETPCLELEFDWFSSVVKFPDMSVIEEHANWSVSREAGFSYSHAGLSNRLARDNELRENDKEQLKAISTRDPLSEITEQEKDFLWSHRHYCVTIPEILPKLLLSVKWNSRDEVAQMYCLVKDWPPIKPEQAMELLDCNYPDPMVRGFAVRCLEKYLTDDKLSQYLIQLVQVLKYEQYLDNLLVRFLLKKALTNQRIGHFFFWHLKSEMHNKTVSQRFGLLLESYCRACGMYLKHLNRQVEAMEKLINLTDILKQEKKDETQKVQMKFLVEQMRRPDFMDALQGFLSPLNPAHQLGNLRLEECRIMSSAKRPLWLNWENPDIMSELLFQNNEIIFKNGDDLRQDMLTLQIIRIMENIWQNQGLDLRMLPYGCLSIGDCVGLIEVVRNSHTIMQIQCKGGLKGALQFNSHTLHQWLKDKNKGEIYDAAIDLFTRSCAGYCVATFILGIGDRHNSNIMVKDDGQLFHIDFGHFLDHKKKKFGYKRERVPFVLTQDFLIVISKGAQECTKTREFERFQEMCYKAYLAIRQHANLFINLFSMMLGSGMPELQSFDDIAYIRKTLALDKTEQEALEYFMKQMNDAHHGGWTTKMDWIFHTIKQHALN
T2 sequence (P27986 whole entry partner): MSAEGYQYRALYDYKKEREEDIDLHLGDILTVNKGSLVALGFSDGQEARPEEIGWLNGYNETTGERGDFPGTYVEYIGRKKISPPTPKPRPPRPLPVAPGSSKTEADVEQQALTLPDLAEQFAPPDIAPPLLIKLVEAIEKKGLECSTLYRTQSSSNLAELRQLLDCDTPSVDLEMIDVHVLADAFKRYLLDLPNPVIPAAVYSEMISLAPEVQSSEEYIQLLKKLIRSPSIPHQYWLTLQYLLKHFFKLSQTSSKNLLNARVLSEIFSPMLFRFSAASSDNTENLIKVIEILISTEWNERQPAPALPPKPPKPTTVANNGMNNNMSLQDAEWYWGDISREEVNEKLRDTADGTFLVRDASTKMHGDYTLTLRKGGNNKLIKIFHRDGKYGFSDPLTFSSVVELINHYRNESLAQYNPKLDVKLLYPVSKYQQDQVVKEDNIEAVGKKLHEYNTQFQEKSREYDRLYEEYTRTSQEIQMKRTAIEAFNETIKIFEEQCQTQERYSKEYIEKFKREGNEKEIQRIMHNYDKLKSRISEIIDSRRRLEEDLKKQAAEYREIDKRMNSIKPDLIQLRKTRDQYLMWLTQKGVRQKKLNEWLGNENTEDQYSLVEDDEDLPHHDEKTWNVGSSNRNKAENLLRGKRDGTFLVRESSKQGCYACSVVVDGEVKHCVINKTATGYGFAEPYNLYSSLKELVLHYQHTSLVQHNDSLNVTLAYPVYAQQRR
Outline: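 Biotinylated human PI3Kα (baculovirus-expressed, 4.5 nmol/L) pre-incubated 15 min with compound in Tris-HCl pH 7.5, MgCl2, BSA; reaction 60 min at 25° C with 50 μmol/L PIP2 and 100 μmol/L ATP final. ADP quantified by ADP-Glo luminescence; IC50 calculated.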

[3] = 2.5 nmol/L ERK2, ATP 43.1 μmol/L
[4] = 4.5 nmol/L PI3Kα, PIP2 50 μmol/L, ATP 100 μmol/L

| IC50 ([1]; ERK2 enzyme assay (1)) | IC50 [1, 3] | IC50 (human PI3Kα protein; [4]) | IC50 (human PI3Kα protein) | Compound | also measured |
| --- | --- | --- | --- | --- | --- |
| < 1000 nM | – | – | – | Cn1cc(-c2cnc3ccc(Nc4nnc(C5CCCCC5)s4)nc3c2)cn1 [Example 0217, 5-Cyclohexyl-N-(7-(1-methyl-1H-pyrazol-4-yl)-1,5-naphthyridin-2-yl)-1,3,4-thiadiazole-2-amine] | IC50 ([2]; ERK2 enzyme assay (2)): < 1000 nM |
| 1000 to 10000 nM | – | – | – | CCOc1nc2ccc(Nc3nnc(C4CCCC4)s3)nc2cc1-c1cnn(C)c1 [Example 0357, 5-Cyclopentyl-N-(6-ethoxy-7-(1-methyl-1H-pyrazol-4-yl)-1,5-naphthyridin-2-yl)-1,3,4-thiadiazole-2-amine] | IC50 ([2]; ERK2 enzyme assay (2)): 1000 to 10000 nM |
| – | < 1000 nM | – | – | Cn1cc(-c2cnc3ccc(Nc4nnc(C5CCCC5)s4)nc3c2)c2cccnc21 [Example 0113] | IC50 ([2]; 1.25 nmol/L ERK2, ATP 1 mmol/L): < 1000 nM |
| – | < 1000 nM | 10000 to 50000 nM | – | Cn1cc(-c2cnc3ccc(Nc4nnc(CCc5ccccc5)s4)nc3c2)cn1 [Example 0171, N-(7-(1-methyl-1H-pyrazol-4-yl)-1,5-naphthyridin-2-yl)-5-phenethyl-1,3,4-thiadiazole-2-amine] | – |
| < 1000 nM | – | – | < 1000 nM | c1nc2ccc(Nc3nnc(C4CCCO4)s3)nc2cc1-c1cnn(C2CCNCC2)c1 (centres unmarked) [Example 0324, N-(7-(1-(piperidin-4-yl)-1H-pyrazol-4-yl)-1,5-naphthyridin-2-yl)-5-(tetrahydrofuran-2-yl)-1,3,4-thiadiazole-2-amine] | – |
| – | < 1000 nM | – | – | c1cnc2[nH]cc(-c3cnc4ccc(Nc5nnc(C6CCCC6)s5)nc4c3)c2c1 [Example 0111] | IC50 ([2]; 1.25 nmol/L ERK2, ATP 1 mmol/L): < 1000 nM |
| – | < 1000 nM | 1000 to 10000 nM | – | CS(=O)(=O)N1CCC(Nc2cnc3ccc(Nc4nnc(C5CCCC5)s4)nc3c2)C1 (centres unmarked) [Example 0108] | – |
| – | < 1000 nM | < 1000 nM | – | CC(C)c1cncc(Nc2cnc3ccc(Nc4nnc(C5CCCC5)s4)nc3c2)c1 [Example 0099] | – |
| – | < 1000 nM | < 1000 nM | – | c1n[nH]cc1Nc1cnc2ccc(Nc3nnc(C4CCCC4)s3)nc2c1 [Example 0175, N^2-(5-cyclopentyl-1,3,4-thiadiazol-2-yl)-N^7-(1H-pyrazol-4-yl)-1,5-naphthyridine-2,7-diamine] | – |
| – | < 1000 nM | 1000 to 10000 nM | – | CN1CCN(c2cnc3ccc(Nc4nnc(C5CCCC5)s4)nc3c2)CC1 [Example 0052] | – |
| – | < 1000 nM | < 1000 nM | – | Cn1cc(-c2cnc3ccc(Nc4nnc(NS(=O)(=O)c5ccccc5)s4)nc3c2)cn1 [Example 0177, N-(5-((7-(1-methyl-1H-pyrazol-4-yl)-1,5-naphthyridin-2-yl)amino)-1,3,4-thiadiazol-2-yl)benzene sulfonamide hydrochloride] | – |
| – | 1000 to 10000 nM | < 1000 nM | – | COc1ccccc1Nc1ccnc2ccc(Nc3nnc(C(C)C)s3)nc12 [Example 0011] | – |
| < 1000 nM | – | – | 10000 to 50000 nM | COc1cc(-c2cnc3ccc(Nc4nnc(C5CCCC5)s4)nc3c2)ccc1O [Example 0202] | – |
| – | < 1000 nM | 1000 to 10000 nM | – | CN(c1nnc(Nc2ccc3ncc(-c4cnn(C)c4)cc3n2)s1)S(=O)(=O)c1ccccc1 [Example 0190] | – |
| < 1000 nM | – | – | < 1000 nM | CC(C)c1cnnc(Nc2ccc3ncc(-c4cnn(CCCN5CCC5)c4)cc3n2)c1 [Example 0371] | – |
| – | < 1000 nM | 1000 to 10000 nM | – | Cn1cc(-c2cnc3ccc(Nc4ccc(Cl)nn4)nc3c2)cn1 [Example 0152] | – |
| – | 1000 to 10000 nM | 1000 to 10000 nM | – | COCc1csc(Nc2ccc3ncc(-c4cnn(C)c4)cc3n2)n1 [Example 0141] | – |
| < 1000 nM | – | – | < 1000 nM | CC(C)c1cnnc(Nc2ccc3ncc(-c4cnn(Cc5ccncc5)c4)cc3n2)c1 [Example 0381] | – |
| 1000 to 10000 nM | – | – | < 1000 nM | Cn1cc(-c2cnc3ccc(Nc4ccc(NS(C)(=O)=O)nn4)nc3c2)cn1 [Example 0409] | – |
| < 1000 nM | – | – | < 1000 nM | c1n[nH]cc1Nc1cnc2ccc(Nc3nnc(C4CCCO4)s3)nc2c1 (centres unmarked) [Example 0228] | – |
| – | < 1000 nM | < 1000 nM | – | CC(=O)N1CCCC(Nc2cnc3ccc(Nc4nnc(C5CCCC5)s4)nc3c2)C1 (centres unmarked) [Example 0076] | – |
| – | < 1000 nM | 10000 to 50000 nM | – | O=C1C=C(c2cnc3ccc(Nc4nnc(C5CCCC5)s4)nc3c2)CO1 [Example 0045, 4-(6-((5-cyclopentyl-1,3,4-thiadiazol-2-yl)amino)-1,5-naphthyridin-3-yl)furan-2(5H)-one hydrochloride] | – |

| IC50 ([1]; ERK2 enzyme assay (1)) | IC50 [1, 3] | IC50 (human PI3Kα protein; [4]) | IC50 (human PI3Kα protein) | Compound | also measured |
| --- | --- | --- | --- | --- | --- |
| < 1000 nM | – | – | 1000 to 10000 nM | O[C@@H]1CCN(c2cnc3ccc(Nc4nnc(C5CCCC5)s4)nc3c2)C1 [Example 0313] | – |
| < 1000 nM | – | – | 1000 to 10000 nM | C1=C(c2cnc3ccc(Nc4nnc(C5CCCC5)s4)nc3c2)CCNC1 [Example 0330, 5-cyclopentyl-N-(7-(1,2,3,6-tetrahydropyridin-4-yl)-1,5-naphthyridin-2-yl)-1,3,4-thiadiazole-2-amine hydrochloride] | – |
| < 1000 nM | – | – | < 1000 nM | Cc1cnnc(Nc2ccc3ncc(-c4cn(C)nc4CO)cc3n2)c1 [Example 0397, (1-methyl-4-(6-((5-methylpyridazin-3-yl)amino)-1,5-naphthyridin-3-yl)-1H-pyrazol-3-yl)methanol] | – |
| < 1000 nM | – | – | 1000 to 10000 nM | O[C@H]1CCN(c2cnc3ccc(Nc4nnc(C5CCCC5)s4)nc3c2)C1 [Example 0314] | – |
| – | < 1000 nM | 1000 to 10000 nM | – | OC1CCN(c2cnc3ccc(Nc4nnc(C5CCCC5)s4)nc3c2)CC1 [Example 0051] | – |
| < 1000 nM | – | – | < 1000 nM | CC(C)c1cnnc(Nc2ccc3ncc(Nc4cncnc4)cc3n2)c1 [Example 0387, N^2-(5-isopropylpyridazin-3-yl)-N^7-(pyrimidin-5-yl)-1,5-naphthyridine-2,7-diamine] | – |
| < 1000 nM | – | – | < 1000 nM | CN(c1cnc2ccc(Nc3nnc(C4CCCC4)s3)nc2c1)C1CCOC1 (centres unmarked) [Example 0326, N^2-(5-cyclopentyl-1,3,4-thiadiazol-2-yl)-N^7-methyl-N^7-(tetrahydrofuran-3-yl)-1,5-naphthyridine-2,7-diamine] | – |
| 1000 to 10000 nM | – | – | < 1000 nM | COc1cccc(Nc2cnc3ccc(Nc4nnc(C5CCCC5)s4)nc3c2)c1 [Example 0220, N^2-(5-cyclopentyl-1,3,4-thiadiazol-2-yl)-N^7-(3-methoxyphenyl)-1,5-naphthyridine-2,7-diamine] | – |
| – | < 1000 nM | – | – | CCCc1nnc(Nc2ccc3ncc(-c4cnn(C)c4)cc3n2)s1 [Example 0169, N-(7-(1-methyl-1H-pyrazol-4-yl)-1,5-naphthyridin-2-yl)-5-propyl-1,3,4-thiadiazole-2-amine] | IC50 ([2]; 1.25 nmol/L ERK2, ATP 1 mmol/L): < 1000 nM |
| < 1000 nM | – | – | < 1000 nM | OCCc1nnc(Nc2ccc3ncc(-c4cnn(CCCN5CCCC5)c4)cc3n2)s1 [Example 0367] | – |
| – | < 1000 nM | 10000 to 50000 nM | – | Oc1cnc2ccc(Nc3nnc(C4CCCC4)s3)nc2c1 [Example 0040, 6-((5-cyclopentyl-1,3,4-thiadiazol-2-yl)amino)-1,5-naphthyridin-3-ol hydrochloride] | – |
| – | < 1000 nM | 1000 to 10000 nM | – | CC(=O)N1CCC(Nc2cnc3ccc(Nc4nnc(C5CCCC5)s4)nc3c2)C1 (centres unmarked) [Example 0065] | – |
| – | < 1000 nM | < 1000 nM | – | c1ccc(-c2cncc(Nc3cnc4ccc(Nc5nnc(C6CCCC6)s5)nc4c3)c2)cc1 [Example 0070] | – |
| < 1000 nM | – | – | – | Cn1cc(-c2cc3nc(Nc4nnc(C5CCCC5)s4)ccc3nc2Cl)cn1 [Example 0349, N-(6-chloro-7-(1-methyl-1H-pyrazol-4-yl)-1,5-naphthyridin-2-yl)-5-cyclopentyl-1,3,4-thiadiazole-2-amine] | IC50 ([2]; ERK2 enzyme assay (2)): 1000 to 10000 nM |
| < 1000 nM | – | – | 1000 to 10000 nM | COCCN(C)c1cnc2ccc(Nc3nnc(C4CCCC4)s3)nc2c1 [Example 0309] | – |
| – | < 1000 nM | < 1000 nM | – | CS(=O)(=O)N1CCC(Nc2cnc3ccc(Nc4nnc(C5CCCC5)s4)nc3c2)CC1 [Example 0098] | – |
| – | < 1000 nM | < 1000 nM | – | O=S(=O)(Nc1ccccc1)c1nnc(Nc2ccc3ncc(-c4cnn(CCN5CCNCC5)c4)cc3n2)s1 [Example 0181, N-phenyl-5-((7-(1-(2-(piperazin-1-yl)ethyl)-1H-pyrazol-4-yl)-1,5-naphthyridin-2-yl)amino)-1,3,4-thiadiazole-2-sulfonamide hydrochloride] | – |
| < 1000 nM | – | – | < 1000 nM | CC(C)c1cnnc(Nc2ccc3ncc(-c4cnn(Cc5cccnc5)c4)cc3n2)c1 [Example 0376] | – |
| – | 1000 to 10000 nM | 1000 to 10000 nM | – | c1ccc(Nc2cnc3ccc(Nc4nnc(C5CCCC5)s4)nc3c2)cc1 [Example 0200, N^2-(5-cyclopentyl-1,3,4-thiadiazol-2-yl)-N^7-phenyl-1,5-naphthyridine-2,7-diamine] | – |
| < 1000 nM | – | – | < 1000 nM | c1cc(-c2ccnc3ccc(Nc4nncs4)nc23)ccn1 [Example 0275] | – |
| < 1000 nM | – | – | < 1000 nM | CCc1nn(CCCN2CCOCC2)cc1-c1cnc2ccc(Nc3cc(C(C)C)cnn3)nc2c1 [Example 0385, 7-(3-ethyl-1-(3-morpholinopropyl)-1H-pyrazol-4-yl)-N-(5-isopropylpyridazin-3-yl)-1,5-naphthyridine-2-amine] | – |
